In PMC11636681, “Pharmacokinetics and pharmacodynamics of antibacterial peptide NZX in Staphylococcus aureus mastitis mouse model” (Applied Microbiology and Biotechnology, 2024):
Marks after values point to notes of the source that are not given here. Positions of bridges follow the written chain, without caps; N, C: chain ends. Residues, ends and D or L forms follow the SMILES beside them.

Key:
[1] = system: S. aureus ATCC 25923; settings: 1 × 10^5 CFU/mL, 16–18 h, 37 °C, value marked a, already published, ref Zheng et al. [2022]; cited from earlier work
From the text: Table 1 The MICs, MBCs and MPCs of NZX and antibiotics against S. aureus strains (μM) | column: S. aureus ATCC 25923 / MIC

[2] = system: S. aureus E48; settings: 1 × 10^5 CFU/mL, 16–18 h, 37 °C, value marked a, already published, ref Zheng et al. [2022]; cited from earlier work
From the text: Table 1 The MICs, MBCs and MPCs of NZX and antibiotics against S. aureus strains (μM) | column: S. aureus E48 / MIC

[3] = Pharmacokinetics in mouse mammary gland after intramammary administration; type: in vivo
Protocol: A 0.5 g of mammary tissue or milk were weighed, homogenized, and transferred to a 10 mL polypropylene centrifuge tube, respectively, extracted sequentially by adding into a 3 mL of 0.1 M of McFarland buffer and 1% trichloroacetic acid (TCA), and cleaned by a C18 solid-phase extraction (SPE) cartridge (Oasis MAX 3 cc 60 mg and Oasis HLB 3 cc 60 mg, respectively, Waters, USA). Afterwards, a 2 mL of 45% acetonitrile with 2% formic acid and 3 mL of 45% acetonitrile were used to elute the columns, respectively, the collected eluents were freeze-dried and dissolved in 200 µL of deionized water and filtered by a […] sterile filter membrane before the analysis of high-performance liquid chromatography-ultraviolet (HPLC–UV). The HPLC–UV with a C18 reverse-phase column (ZORBAX Eclipse Plus C18 4.6 mm × 250 mm, 5 µm) conditions for detecting NZX were as follows: the mobile phase consisted of A: 0.1% trifluoroacetate […] in acetonitrile and B: 0.1%TFA in water; the injection volume was 40 μL; the wavelength of UV detector was 280 nm; flow rate was 1.0 mL/min; the column temperature was 35 °C, and the elution was conducted with a linear gradient of 20–45% mobile phase A for 16 min. The linear relationship, limits of detection (LOD), limits of quantitation (LOQ), accuracy and precision were determined by adding the known concentrations of NZX into the extracted blank matrix of mammary gland. Each concentration was conducted three times.
A pharmacokinetic assessment of a single dose of NZX at 100 μg/gland was carried out using 36 individual healthy lactating mice following intramammary administration (Wang et al. [2021]). Mammary tissues were harvested at 0.083, 0.5, 1, 2, 3, 4, 6, 9, 12, 16, 20 and 24 h with three mice (six mammary in total) at each time point. The collected samples were then placed into 2 mL eppendorf tubes and stored at − 80 °C before the content determination of NZX in mammary gland by HPLC–UV. Briefly, a portion of the mammary gland tissues (0.5 g) was weighed in 2 mL eppendorf tubes, homogenized for 20 min (50 HZ and 4 °C) in 0.5 mL of PBS solution, and pretreated and purified by a MAX cartridge as described above. The pharmacokinetic parameters of NZX in mammary gland tissues were calculated by non-compartmental model using WinNonlin Phoenix version 8.1 (Pharsight Co., Mountain View, CA, USA).

[4] = mouse mammary tissue, single 100 μg/gland intramammary, healthy lactating mice, HPLC–UV, non-compartmental model

SMILES: CC[C@H](C)[C@@H]1NC(=O)[C@H](CO)NC(=O)[C@H](CCCCN)NC(=O)[C@@H]2CSSC[C@@H](C(=O)N[C@@H](Cc3ccc(O)cc3)C(=O)O)NC(=O)[C@H](CCCCN)NC(=O)[C@@H]3CSSC[C@H](NC(=O)[C@H](CCC(N)=O)NC(=O)[C@H]([C@@H](C)CC)NC(=O)[C@H](CC(=O)O)NC(=O)[C@H](CC(=O)O)NC(=O)[C@H](CCC(=O)O)NC(=O)[C@H](CO)NC(=O)[C@H](Cc4c[nH]c5ccccc45)NC(=O)[C@@H]4CCCN4C(=O)CNC(=O)[C@H](CC(N)=O)NC(=O)[C@@H](NC(=O)CNC(=O)[C@H](Cc4ccccc4)NC(=O)CN)CSSC[C@H](NC(=O)[C@H](Cc4ccc(O)cc4)NC(=O)CNC(=O)CNC(=O)[C@H](CCCCN)NC(=O)[C@H](Cc4ccc(O)cc4)NC(=O)CNC(=O)[C@H](CCCCN)NC1=O)C(=O)N[C@@H](C)C(=O)N[C@@H](CCCNC(=N)N)C(=O)NCC(=O)NCC(=O)N[C@@H](Cc1ccccc1)C(=O)N[C@@H](C(C)C)C(=O)N3)C(=O)N[C@@H](Cc1c[nH]cn1)C(=O)N[C@@H](CC(N)=O)C(=O)N[C@@H](Cc1c[nH]cn1)C(=O)N2 [NZX] (H-GFGCNGPWSEDDIQCHNHCKSIKGYKGGYCARGGFVCKCY-OH; disulfide 4-30, 15-37, 19-39; N-terminus and C-terminus assumed)
- MIC [1]: 0.46^a μM
- MIC [2]: 0.23^a μM
- AUC, area under the concentration time curve from time 0 to 24 h [3, 4]: 391 µg·h/g
- Cmax, peak concentration [3, 4]: 32.49 µg/g
- Tmax, peak time [3, 4]: 0.5 h
- T1/2, terminal elimination half-life ([3]; mouse mammary tissue, single 100 μg/gland intramammary, healthy lactating mice, HPLC–UV, non-compartmental model, three mice (six glands) per time point): 35.11 h
- tissue distribution after administration by milk duct ([3]; mouse, no detection in serum and organs (data not shown)): only distributed into mammary gland tissues
